Calls of active or inactive are those of the source. The rule behind the calls is not given here.

From ChEMBL document CHEMBL3232923, “Illudins C2 and C3 stimulate lipolysis in 3T3-L1 adipocytes and suppress adipogenesis in 3T3-L1 preadipocytes” (J Nat Prod, 2014) come the findings set out here.

The subject of data set [1] is 3T3-L1. As to the kind of experiment: Inhibition of mouse 3T3L1 cell differentiation assessed as reduction in PPARgamma protein level after 8 days by immunoblotting. It is filed as functional, cell-based. For orientation: Immunoblotting shows a protein as a band on a membrane.
Data set [2] in a line: Reduction of […] mRNA expression in mouse 3T3L1 cells at 1 to 10 uM after 24 hrs by […]. It is filed as functional, cell-based. Particulars: 3T3-L1.
The test system of data set [3] is 3T3-L1. As to the kind of experiment: Reduction of […] protein level in mouse 3T3L1 cells at 10 uM after 24 to 48 hrs by immunoblotting. Type of data set: functional, cell-based.
Data set [4] deals with 3T3-L1. As to the kind of experiment: Inhibition of mouse 3T3L1 cell differentiation assessed as reduction in EBPalpha gene expression after 2 days by RT-PCR analysis. Type of data set: functional, cell-based.
Data set [5] relates to 3T3-L1. As to the kind of experiment: Inhibition of mouse 3T3L1 cell differentiation assessed as reduction in intracellular lipid accumulation after 8 days by Oil Red O staining method. Type of data set: functional, cell-based.
The subject of data set [6] is 3T3-L1. As to the kind of experiment: Inhibition of mouse 3T3L1 cell differentiation assessed as reduction in EBPalpha protein level after 8 days by immunoblotting. Type of data set: functional, cell-based.
For data set [7], the system named is 3T3-L1. The data set can be described thus: Induction of PKA-mediated HSL phosphorylation at S563 in mouse 3T3L1 cells at 10 uM after 24 to 48 hrs by immunoblotting. It is filed as cell-based.
For data set [8], the system named is 3T3-L1. As to the kind of experiment: Reduction of HSL protein level in mouse 3T3L1 cells at 10 uM after 24 to 48 hrs by immunoblotting. Type of data set: functional, cell-based.
Data set [9] deals with 3T3-L1. The data set can be described thus: Stimulation of lipolysis in mouse 3T3L1 cells at 10 uM after 48 hrs by glycerol release assay. It is filed as functional, cell-based.
Data set [10] relates to 3T3-L1. The data set can be described thus: Stimulation of lipolysis in mouse 3T3L1 cells after 48 hrs by glycerol release assay in presence of ERK inhibitor PD98059. Type of data set: functional, cell-based.
A short description of data set [11]: Reduction of […] mRNA expression in mouse 3T3L1 cells after 24 hrs by RT-PCR analysis. It is filed as functional, cell-based. Particulars: 3T3-L1.
The nature of data set [12]: Cytotoxicity against mouse 3T3L1 cells at 1 to 10 uM after 48 hrs by MTT assay. It is filed as cell-based. The conditions noted are these: 3t3-l1, 48 h.
Data set [13] concerns 3T3-L1. As to the kind of experiment: Reduction of perilipin protein level in mouse 3T3L1 cells at 10 uM after 24 to 48 hrs by immunoblotting. Type of data set: functional, cell-based.
Data set [14] deals with 3T3-L1. The data set can be described thus: Stimulation of lipolysis in mouse 3T3L1 cells after 48 hrs by glycerol release assay in presence of JNK inhibitor SP600125. Type of data set: functional, cell-based.
The subject of data set [15] is 3T3-L1. As to the kind of experiment: Induction of PKA-mediated HSL phosphorylation at S660 in mouse 3T3L1 cells at 10 uM after 24 to 48 hrs by immunoblotting. Type of data set: cell-based.
The subject of data set [16] is 3T3-L1. As to the kind of experiment: Induction of AMPK-mediated HSL phosphorylation at S565 in mouse 3T3L1 cells at 10 uM after 24 to 48 hrs by immunoblotting. Type of data set: cell-based.
For data set [17], the system named is 3T3-L1. As to the kind of experiment: Stimulation of lipolysis in mouse 3T3L1 cells after 48 hrs by glycerol release assay. It is filed as functional, cell-based.
Data set [18] deals with 3T3-L1. As to the kind of experiment: Stimulation of lipolysis in mouse 3T3L1 cells after 48 hrs by glycerol release assay in presence of p38 MAPK inhibitor SB203580. Type of data set: functional, cell-based.
Data set [19] deals with 3T3-L1. As to the kind of experiment: Stimulation of lipolysis in mouse 3T3L1 cells after 48 hrs by glycerol release assay in presence of PKA inhibitor H89. Type of data set: functional, cell-based.
Data set [20] in a line: Reduction of HSL mRNA expression in mouse 3T3L1 cells at 1 to 10 uM after 24 hrs by RT-PCR analysis. The conditions noted are these: 3T3-L1. Type of data set: functional, cell-based.
Data set [21] deals with 3T3-L1. As to the kind of experiment: Reduction of lipid content in mature mouse 3T3L1 cells after 7 days by Oil Red O staining method. Type of data set: functional, cell-based.
A short description of data set [22]: Reduction of perilipin mRNA expression in mouse 3T3L1 cells after 24 hrs by RT-PCR analysis. It is filed as functional, cell-based. Particulars: 3T3-L1.
In data set [23] the test system is 3T3-L1. The data set can be described thus: Inhibition of mouse 3T3L1 cell differentiation assessed as reduction in PPARgamma gene expression after 2 days by RT-PCR analysis. Type of data set: functional, cell-based.
For data set [24], the system named is 3T3-L1. As to the kind of experiment: Stimulation of lipolysis in mouse 3T3L1 cells at 0.25 mM after 48 hrs by glycerol release assay. It is filed as functional, cell-based.

Consider `C=C1C(=O)C2=C(C[C@@](C)(CO)C2)[C@](C)(O)C12CC2`, for which the inhibition result in the data set with 3T3-L1 [1], in the data set on 3T3-L1 [5] and with 3T3-L1 [6] was “Dose-dependent effect” each time. Further, the outcome (in [2]; in the data set with 3T3-L1 [3]; in the data set on 3T3-L1 [7]; in the data set on 3T3-L1 [8]; in the data set with 3T3-L1 [9]; in the data set on 3T3-L1 [13]) was Active. Besides, the outcome (in the data set on 3T3-L1 [14]; in the data set with 3T3-L1 [15]; in the data set on 3T3-L1 [18]; in data set [20]) was Active. The inhibition entry in the data set on 3T3-L1 [4] and with 3T3-L1 [23] was “Active” in each case. For the same molecule, the result in the data set on 3T3-L1 [10], in the data set on 3T3-L1 [16] and in the data set with 3T3-L1 [19] was inactive. The Activity entry in data set [11] is “Dose-dependent effect”; in data set [12], “Non-toxic”; in the data set with 3T3-L1 [17] it was “Dose-dependent effect”; in the data set with 3T3-L1 [21] it was “Dose-dependent effect”; in data set [22], “Dose-dependent effect”.

For the molecule `CC(C)Cn1c(=O)n(C)c(=O)c2nc[nH]c21`, the result in the data set with 3T3-L1 [24] was Active.

With `C=C1C(=O)C2=C(C[C@](C)(CO)C2)[C@](C)(O)C12CC2`, the inhibition entry with 3T3-L1 [1], in the data set on 3T3-L1 [5] and in the data set on 3T3-L1 [6] was “Dose-dependent effect” each time. Further, the result (in data set [2]; in the data set with 3T3-L1 [3]; in the data set with 3T3-L1 [7]; in the data set with 3T3-L1 [8]; in the data set on 3T3-L1 [9]; in the data set on 3T3-L1 [13]) was Active. Moreover, the result (in the data set with 3T3-L1 [14]; in the data set on 3T3-L1 [15]; in the data set on 3T3-L1 [18]; in data set [20]) was Active. Moreover, the inhibition result in the data set with 3T3-L1 [4] and in the data set with 3T3-L1 [23] was “Active” each time. In addition, the result with 3T3-L1 [10], with 3T3-L1 [16] and with 3T3-L1 [19] was inactive. In addition, the Activity entry in data set [11] is “Dose-dependent effect”; in data set [12], “Non-toxic”; with 3T3-L1 [17], “Dose-dependent effect”; in the data set with 3T3-L1 [21], “Dose-dependent effect”; in data set [22], “Dose-dependent effect”.

For the molecule `CC(C)NCC(O)c1ccc(O)c(O)c1` (stereo not drawn), in the data set with 3T3-L1 [9], the result was Active.
